From USRE47689E1, “Compounds for treating spinal muscular atrophy” (PTC Therapeutics, Inc., priority 2011, dated 2019) come the findings set out here.

The test system of experiment [1] is SMN2 minigene (full length SMN2 minigene mRNA containing SMN2 exon 7). Nature of the experiment: SMN2 minigene mRNA splicing RT-qPCR assay in cultured cells. The format is cell-based, human. The note with it: for exon 7 inclusion / SMN2mini FL mRNA relative to vehicle control: HEK293H cells with SMN2-A minigene; for exon 7 inclusion: relative to untreated cells; for SMN2mini FL mRNA relative to vehicle control: rising concentrations, 24 hr; for EC (1.5-fold): Homo sapiens, HEK293-H, HEK293H cells stably transfected with SMN2-A minigene, 24 hours, 7-point concentration curve, 1.5-fold relative to vehicle-treated cells, read-out: EC1.5x for production of full length SMN2 mRNA. The gist of the method:
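Lysates → one-step RT-qPCR, minigene-specific primers (0.4 μM final) + GAPDH multiplex, 40 cycles. FL/GAPDH vs DMSO; EC1.5x, star-binned.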
In general terms: Real-time PCR tracks product formation cycle by cycle.

The subject of experiment [2] is SMA Δ7 homozygous knockout mice. The experiment is described as follows: Survival of neonatal Δ7 SMA mice. Format: in vivo, mouse. The note with it: IP QD from PND 3, then orally BID until study end, compared to vehicle. The procedure:
The change in the number of surviving mice over time is used to determine whether treatment with a test compound improves survival.
Protocol. SMA Δ7 homozygous knockout mice are dosed intraperitoneally (IP) with test compound or vehicle (100% DMSO) once per day (QD) from postnatal day (PND) 3 until the dose regimen is switched to an oral dose twice per day (BID) in 0.5% hydroxypropylmethyl cellulose (HPMC) with 0.1% Tween-80 at a dose 3.16-fold higher than the dose used for IP. The number of surviving mice in each group is recorded every day and plotted as a percent of total number of mice. Tissues of SMA Δ7 and age-matched heterozygous mice are collected for the measurement of Smn protein levels and processed as detailed in Example 10. The total protein normalized Smn protein levels measured in the tissues are plotted as a percent of those in the age-matched heterozygous mice tissues, with the heterozygous levels represented as 100 percent. The level of Smn protein in the test compound treated mice tissue relative to that in heterozygous mice tissue is indicated as a percent value above each bar in the graph.

The test system is the same in experiment [3]. Nature of the experiment: Body weight of neonatal Δ7 SMA mice. The format is in vivo, mouse. The note with it: IP QD from PND 3, then orally BID until study end, compared to vehicle. How it is done: The change in body weight of neonatal SMA mice is used to determine whether treatment with a test compound improves body weight.
Protocol. SMA Δ7 homozygous knockout mice are dosed intraperitoneally (IP) with test compound or vehicle (100% DMSO) once per day (QD) from postnatal day (PND) 3 until the dose regimen is switched to an oral dose twice per day (BID) in 0.5% hydroxypropylmethyl cellulose (HPMC) with 0.1% Tween-80 at a dose 3.16-fold higher than the dose used for IP. Body weights of SMA Δ7 mice treated with test compound or vehicle and age matched heterozygous mice are recorded every day.

As for `CCN1CCN(c2ccc3cc(-c4cn5cc(C)nc(C)c5n4)c(=O)oc3c2)C[C@@H]1C` [Cpd 626, 3-(6,8-dimethylimidazo[1,2-a]pyrazin-2-yl)-7-[(3S)-4-ethyl-3-methylpiperazin-1-yl]-2H-chromen-2-one], in experiment [1], the “exon 7 inclusion” value is “fully restored exon 7 inclusion relative to untreated cells”, the “SMN2mini FL mRNA relative to vehicle control” value is given as “increased SMN2mini FL mRNA at low concentrations” and the EC (1.5-fold) is below 0.1 µM. Besides, in experiment [2], the survival entry is listed as “improved compared to vehicle treated mice”. For the same molecule, the body weight result in experiment [3] is “improved compared to vehicle treated mice”.
With `CC(C)NCCc1ccc2cc(-c3nc4c(Cl)cccc4s3)c(=O)oc2c1` [Cpd 35, 3-(4-chloro-1,3-benzothiazol-2-yl)-7-[2-(propan-2-ylamino)ethyl]-2H-chromen-2-one], in experiment [1], the “exon 7 inclusion” value is reported as “fully restored exon 7 inclusion relative to untreated cells”, the “SMN2mini FL mRNA relative to vehicle control” value is “increased SMN2mini FL mRNA at low concentrations” and the EC (1.5-fold) lay within 0.3 to 1 µM. Also, the survival result in experiment [2] was “improved compared to vehicle treated mice”. The body weight result in experiment [3] is listed as “improved compared to vehicle treated mice”.
